Experimental data reported in patent US7544664B2, “Sequences facilitating penetration of a substance of interest” (priority 2003, dated 2009).
Values after ≈ are worked out from the molar mass of the structure shown.

What was measured:
[1] = literature (Tabosa Do Egito et al. 1996); cited from earlier work
[2] = tested on: Candida parapsilosis (ATCC 22019); experiment: In vitro antifungal activity MIC80 (NCCLS M27A); conditions: MIC80, 48 hours, 37° C.; DPV15-AmB and AmB in μg/ml of AmB active product

C[C@@H]1[C@H](O)[C@@H](C)/C=C/C=C/C=C/C=C/C=C/C=C/C=C/[C@H](O[C@@H]2O[C@H](C)[C@@H](O)[C@H](N)[C@@H]2O)C[C@@H]2O[C@](O)(C[C@@H](O)C[C@@H](O)[C@H](O)CC[C@@H](O)C[C@@H](O)CC(=O)O[C@H]1C)C[C@H](O)[C@H]2C(=O)O [AmB, Amphotericin B]
MTD [1]: 1 mg/kg | MIC [2]: 0.25 µg/mL (≈ 0.271 µM)
